# Columns and labels:
# [1] = target: Oxidized purine nucleoside triphosphate hydrolase (Homo sapiens, UniProt P36639); experiment: Inhibition of human recombinant His-tagged MTH1 expressed in Escherichia coli BL21 using dGTP as substrate after 15 mins by malachite green reagent-based assay
# [2] = tested on: HeLa; experiment: Cytotoxicity against human HeLa cells after 72 hrs by WST-8 assay; assay type: functional, cell-based
IC50 [1],Structure (SMILES),EC50 [2]
0.17 µM,Nc1nc(SCCc2ccccc2)c2nc[nH]c2n1,–
5.6 µM,Cc1nc(N)nc2ccccc12,–
–,Nc1nc(NCCc2ccccc2)c2nc[nH]c2n1,35 µM
24 µM,CSc1nc2c(N)ncnc2[nH]1,–
